Test results taken from patent publication US8865734B2 (priority 2010, dated 2014).
Values after ≈ are worked out from the molar mass of the structure shown.

System: in vitro grown Mycobacteria (M. tuberculosis)
Assay: QUM: Quantification of in vitro grown Mycobacteria (in vitro growth fluorescence assay)
Format: cell-based
Conditions: MIC, 80% bacterial growth inhibition; in vitro growth
From the text: A 120,000 small molecule compound library was screened using a validated phenotypic cell-based assay (WO2010003533A2). Active compounds from the primary screen were confirmed via dose response in the intracellular (QIM) assay and an in vitro (QUM) assay, wherein the abbreviation “QIM” stands for Quantification of Intracellular Mycobacteria and the abbreviation “QUM” stands for Quantification of in vitro grown Mycobacteria. […] The MIC is the minimum concentration of compound required to obtain 80% bacterial growth inhibition.
The imidazopyridine compounds (scaffolds Ia and Ib; see Table 1) underwent derivatization according to the methods outlined below (Schemes 1-13). Resulting derivatives were examined for inhibitory activity (MIC) using the assays described above (Example 1) and the results are summarized in Table 1.

Row | Compound | QUM (μM)
1 | 6-Chloro-N-(4-(4-(cyclopentyloxymethyl)piperidin-1-yl)benzyl)-2-ethylimidazo[1,2-a]pyridine-3-carboxamide [Compound 293] | +++ (+++ indicates <1 uM)

Same assay, conditions: Mycobacterium tuberculosis; MIC, 80% bacterial growth inhibition; in vitro growth; read-out: QUM

Row | Compound | MIC [µM]
2 | CCc1nc2ccc(Cl)cn2c1C(=O)NCc1ccc(N2CCC(C(=O)N(C)C)CC2)cc1 [Compound 345, 6-Chloro-N-(4-(4-(dimethylcarbamoyl)piperidin-1-yl)benzyl)-2-ethylimidazo[1,2-a]pyridine-3-carboxamide] | < 1
3 | CCc1nc2cc(Cl)ccn2c1C(=O)NCc1ccc(N2CCC(C=O)CC2)cc1 [Compound 352, 7-Chloro-2-ethyl-N-(4-(4-formylpiperidin-1-yl)benzyl)imidazo[1,2-a]pyridine-3-carboxamide] | < 1
4 | CCc1nc2cc(C)ccn2c1C(=O)NCc1ccc(OC(F)(F)F)cc1 [Compound 249, 2-Ethyl-7-methyl-N-(4-(trifluoromethoxy)benzyl)imidazo[1,2-a]pyridine-3-carboxamide] | < 1
5 | CCc1nc2ccc(Cl)cn2c1C(=O)NCc1ccc(N2CCC(c3ccc(Cl)cc3)CC2)cc1 [Compound 337, 6-Chloro-N-(4-(4-(4-chlorophenyl)piperidin-1-yl)benzyl)-2-ethylimidazo[1,2-a]pyridine-3-carboxamide] | < 1
6 | CCc1nc2ccc(Cl)cn2c1C(=O)NCc1ccc(N2CCC(C=O)CC2)cc1 [Compound 351, 6-Chloro-2-ethyl-N-(4-(4-formylpiperidin-1-yl)benzyl)imidazo[1,2-a]pyridine-3-carboxamide] | < 1
7 | CCc1nc2ccc(Cl)cn2c1C(=O)NCc1ccc(N2CCC(OCc3ccc(F)cc3)CC2)cc1 [Compound 347, 6-Chloro-2-ethyl-N-(4-(4-(4-fluorobenzyloxy)piperidin-1-yl)benzyl)imidazo[1,2-a]pyridine-3-carboxamide] | < 1
8 | CCc1nc2cc(Cl)ccn2c1C(=O)NCc1ccc(-n2cc3c(c2)CCCC3)cc1 [Compound 225, 7-Chloro-2-ethyl-N-(4-(4,5,6,7-tetrahydro-2H-isoindol-2-yl)benzyl)imidazo[1,2-a]pyridine-3-carboxamide] | < 1
9 | CCc1nc2ccc(Cl)cn2c1C(=O)NCc1ccc(C(=O)NCc2ccc(C(=O)N3CCOCC3)cc2)cc1 [Compound 332, 6-Chloro-2-ethyl-N-(4-((4-(morpholine-4-carbonyl)benzyl)carbamoyl)benzyl) imidazo[1,2-a]pyridine-3-carboxamide] | > 20
10 | CCc1nc2cc(Cl)ccn2c1C(=O)NCc1ccc(N2CCC(OCc3ccc(F)cc3)CC2)cc1 [Compound 348, 7-Chloro-2-ethyl-N-(4-(4-(4-fluorobenzyloxy)piperidin-1-yl)benzyl)imidazo[1,2-a]pyridine-3-carboxamide] | 1 to 20 (≈ 0.521 to 10.4 µg/mL)
11 | CCc1nc2cc(Br)ccn2c1C(=O)NCc1ccc(OC(F)(F)F)cc1 [Compound 250, 7-Bromo-2-ethyl-N-(4-(trifluoromethoxy)benzyl)imidazo[1,2-a]pyridine-3-carboxamide] | < 1
12 | CCc1nc2cc(Cl)ccn2c1C(=O)NCc1ccc(N2CCOCC2)c(Cl)c1 [Compound 350, 7-Chloro-N-(3-chloro-4-morpholinobenzyl)-2-ethylimidazo[1,2-a]pyridine-3-carboxamide] | < 1
13 | CCc1nc2cc(Cl)ccn2c1C(=O)NCc1ccc(C(=O)N2CCOCC2)cc1 [Compound 333, 7-Chloro-2-ethyl-N-(4-(morpholine-4-carbonyl)benzyl)imidazo[1,2-a]pyridine-3-carboxamide] | > 20
14 | CCc1nc2c(Br)cccn2c1C(=O)NCc1ccc(N2CCOCC2)cc1 [Compound 320, 8-Bromo-2-ethyl-N-(4-morpholinobenzyl)imidazo[1,2-a]pyridine-3-carboxamide] | < 1
